In data set [1] the target is T1, α-galactosidase from green coffee beans (Coffea arabica, UniProt Q42656).
T1 construct: purchased
Put plainly: Glycosidase inhibition, p-nitrophenolate assay. The format is biochemical. The following applies: mean of triplicate experiments. As for the experimental part: (§1) An in vitro evaluation of these compounds to act as an enzyme inhibitor using a panel of commercially available glycosidases was performed (Table 1) using p-nitrophenolate assays.
(§2) The corresponding p-nitrophenyl glycoside and the inhibitors were dissolved in NaOAc buffer (0.05 M, pH = 6.0) reaching final concentrations of 1.0, 1.11, 1.25, 1.43, 1.67, 2.0, 2.5, 3.33, 5.0, and 10 mM. Further dilutions (if necessary) were made in the ratios 1:60, 1:50, 1:40, 1:30, 1:20, 1:10, and 1:5. The ice-cooled solution of the enzymes was contained between 4.0 and 4.5 U/mL. The kinetic assays were performed in 96-well microtiter plates. The following solutions were pipetted per well: p-nitrophenyl glycoside (100 μL), enzyme (50 μL), inhibitor (100 μL), and standard (p-nitrophenol, 5 μL). Immediately after addition, UV/Vis absorption was measured at 42 °C and λ = 415 nm for 20 min with a single measurement interval of 50 s.

Data set [2] addresses T2, α-glucosidase from Baker’s yeast (Saccharomyces cerevisiae, UniProt P53341).
T2 construct: purchased
Briefly: Glycosidase inhibition, p-nitrophenolate assay. The data set is classed as biochemical. As for the experimental part: as §1, §2

Data set [3] addresses β-glucosidase from almonds. Put plainly: Glycosidase inhibition, p-nitrophenolate assay. The format is biochemical. The following applies: mean of triplicate experiments, n.a. = no activity. As for the experimental part: as §1, §2
Data set [4] addresses T3, β-galactosidase from E. coli (Escherichia coli, UniProt P00722).
T3 construct: purchased
Put plainly: Glycosidase inhibition, p-nitrophenolate assay. The data set is classed as biochemical. The following applies: mean of triplicate experiments. As for the experimental part:
as §1, §2

In data set [5] the test system is panel of commercially available glycosidases. Put plainly: Glycosidase panel, type of inhibition and selectivity (p-nitrophenolate assays). The data set is classed as biochemical. The following applies: panel of five glycosidases. As for the experimental part:
as §1, §2

Data set [6] can be described thus: Cytotoxicity, sulforhodamine B (SRB) assay, nonmalignant cells. The format is cell-based, mouse. The following applies: NIH 3T3 fibroblasts (nonmalignant); for IC50 at 3 days: nonmalignant NIH 3T3 mouse fibroblasts, no significant cytotoxicity; for EC50 at 3 days: mouse, as restated in the conclusion, NIH 3T3, read-out: EC50, cytotoxicity (SRB assays). As for the experimental part: (§3) Low or absent cytotoxicity is a mandatory requirement for subsequent therapeutic use of the compounds as glycosidase inhibitors. Therefore, their cytotoxicity was determined.
(§4) The cell lines were obtained from Department of oncology (Martin-Luther-University Halle-Wittenberg). Cultures were maintained as monolayers in RPMI 1640 medium with L-glutamine (Capricorn Scientific GmbH, Ebsdorfergrund, Germany) supplemented with 10% heat inactivated fetal bovine serum (Sigma-Aldrich Chemie GmbH, Steinheim, Germany) and penicillin/streptomycin (1%, Capricorn Scientific GmbH, Ebsdorfergrund, Germany) at 37 °C in a humidified atmosphere with 5% CO2.
(§5) The cytotoxicity of the compounds was evaluated using the SRB (Kiton-Red S, ABCR) micro culture colorimetric assay using […] cells in 96-well plates with the seeding of the cells on day 0 applying appropriate cell densities to prevent confluence of the cells during the period of the experiment. On day 1, the cells were treated with six different concentrations (1, 3, 7, 12, 20, and 30 μM); thereby, the final concentration of DMSO was always < 0.5%, generally regarded as nontoxic to the cells. On day 4, the supernatant medium was discarded; the cells were fixed with 10% trichloroacetic acid. After another day at 4 °C, the cells were washed in a strip washer and dyed with the SRB solution (100 μL, 0.4% in 1% acetic acid) for about 20 min to be followed by washing of the plates (four times, 1% acetic acid) and air-drying overnight. Furthermore, tris base solution (200 μL, 10 mM) was added to each well and absorbance was measured at λ = 570 nm employing a reader (96-wells, Tecan Spectra, Crailsheim, Germany).
On the technique in general: The SRB assay estimates cell density from bound dye.

Data set [7] is described as follows: Cytotoxicity, sulforhodamine B (SRB) assay, cancer cell panel. The data set is classed as cell-based, human. The following applies: for EC50 at 3 days: as restated in the conclusion, human cancer cell lines, read-out: EC50, cytotoxicity (SRB assays); for IC50 at 3 days: panel of 15 human cancer cell lines, no significant cytotoxicity. As for the experimental part: as §3, §4, §5

The mark [8] stands for this setting: p-nitrophenolate assay, mean of triplicate experiments, read-out: Ki, α-glucosidase from Baker’s yeast.

Where two headings read alike, the source gives them in different places.

T1 sequence (Q42656 16-378): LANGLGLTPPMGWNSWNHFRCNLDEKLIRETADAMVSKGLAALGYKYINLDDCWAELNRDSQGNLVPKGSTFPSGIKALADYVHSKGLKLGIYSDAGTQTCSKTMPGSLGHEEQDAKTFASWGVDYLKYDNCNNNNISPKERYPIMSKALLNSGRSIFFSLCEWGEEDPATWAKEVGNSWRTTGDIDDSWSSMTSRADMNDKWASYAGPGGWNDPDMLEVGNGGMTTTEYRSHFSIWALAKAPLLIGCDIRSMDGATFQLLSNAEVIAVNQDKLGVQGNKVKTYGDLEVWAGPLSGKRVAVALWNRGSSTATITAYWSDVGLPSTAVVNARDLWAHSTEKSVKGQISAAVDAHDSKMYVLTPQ
T2 sequence (P53341 whole entry): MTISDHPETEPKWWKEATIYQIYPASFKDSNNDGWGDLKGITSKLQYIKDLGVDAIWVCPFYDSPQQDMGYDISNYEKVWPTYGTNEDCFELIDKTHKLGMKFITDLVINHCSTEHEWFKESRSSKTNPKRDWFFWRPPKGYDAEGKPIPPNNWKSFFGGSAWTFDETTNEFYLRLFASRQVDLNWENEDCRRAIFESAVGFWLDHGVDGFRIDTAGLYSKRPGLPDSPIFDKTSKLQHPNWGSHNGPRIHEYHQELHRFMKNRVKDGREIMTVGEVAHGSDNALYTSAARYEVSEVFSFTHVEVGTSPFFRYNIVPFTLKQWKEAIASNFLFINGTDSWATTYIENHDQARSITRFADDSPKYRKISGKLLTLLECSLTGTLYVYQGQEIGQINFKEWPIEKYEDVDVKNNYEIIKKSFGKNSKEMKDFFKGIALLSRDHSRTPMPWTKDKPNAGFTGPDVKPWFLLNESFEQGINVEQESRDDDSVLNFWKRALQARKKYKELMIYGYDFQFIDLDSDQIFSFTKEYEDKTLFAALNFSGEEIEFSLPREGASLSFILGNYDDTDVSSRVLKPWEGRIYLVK
T3 sequence (P00722 2-1024 limits assumed): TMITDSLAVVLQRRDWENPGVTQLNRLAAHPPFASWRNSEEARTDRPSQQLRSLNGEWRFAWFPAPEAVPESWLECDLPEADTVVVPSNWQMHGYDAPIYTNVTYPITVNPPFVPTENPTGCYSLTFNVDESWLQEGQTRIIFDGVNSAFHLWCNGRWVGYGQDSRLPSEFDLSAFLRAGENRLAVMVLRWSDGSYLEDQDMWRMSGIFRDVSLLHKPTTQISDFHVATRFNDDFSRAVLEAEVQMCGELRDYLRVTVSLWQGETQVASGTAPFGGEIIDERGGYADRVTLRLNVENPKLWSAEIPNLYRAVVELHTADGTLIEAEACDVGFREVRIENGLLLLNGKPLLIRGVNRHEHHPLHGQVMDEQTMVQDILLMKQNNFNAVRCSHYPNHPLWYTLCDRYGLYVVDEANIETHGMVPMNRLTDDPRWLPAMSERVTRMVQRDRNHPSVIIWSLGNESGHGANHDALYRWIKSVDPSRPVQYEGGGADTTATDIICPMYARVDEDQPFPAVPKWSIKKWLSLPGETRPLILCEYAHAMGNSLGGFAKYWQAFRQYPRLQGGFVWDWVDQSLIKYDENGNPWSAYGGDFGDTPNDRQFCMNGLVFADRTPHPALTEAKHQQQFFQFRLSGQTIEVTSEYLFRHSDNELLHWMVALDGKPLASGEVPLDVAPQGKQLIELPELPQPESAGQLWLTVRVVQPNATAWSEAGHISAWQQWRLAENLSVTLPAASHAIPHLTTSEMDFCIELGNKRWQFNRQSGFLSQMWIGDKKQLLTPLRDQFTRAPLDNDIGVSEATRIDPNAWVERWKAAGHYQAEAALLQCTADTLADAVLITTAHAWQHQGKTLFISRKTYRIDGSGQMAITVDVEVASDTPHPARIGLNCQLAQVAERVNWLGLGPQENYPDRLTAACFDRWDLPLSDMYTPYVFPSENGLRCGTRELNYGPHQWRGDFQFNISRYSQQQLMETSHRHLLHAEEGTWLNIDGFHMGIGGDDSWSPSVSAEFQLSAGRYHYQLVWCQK

For orientation: Ki means a dissociation constant, usually derived from enzyme kinetics or from competition with a known ligand. On to `OCCN1C[C@H](O)[C@@H](O)[C@H](O)[C@H]1CO` [Miglitol, reference compound], for which the Ki in data set [1] stood at 13.9 ± 0.15 µM; in data set [2], 9.92 ± 0.14 µM; in data set [3] it was 0.21 ± 0.05 µM; in data set [4], 0.16 ± 0.06 µM.
What is called IC50 is the concentration that inhibits the measured activity by half. The EC50 is the concentration needed to bring the measured effect to its halfway point. `CCCO[C@@H]1O[C@H](CN)[C@@H](O)[C@H](O)C1(F)F` [compound 8, n-Propyl 6-amino-2,6-dideoxy-2,2-difluoro-β-D-glucopyranoside]: the “selectivity among the glycosidases” value in data set [5] is listed as “nonselective inhibitor”. The half-inhibitory concentration (IC50) at 3 days in data set [6] and in data set [7] was over 50 µM in each case. The EC50 at 3 days in data set [6] and in data set [7] was over 50 µM throughout. Further, the Ki in data set [1] is 3.81 ± 0.57 µM; in data set [2] (setting [8]), 1.83 ± 0.16 µM; in data set [3], 1.76 ± 0.13 µM; in data set [4] it was 0.5 ± 0.09 µM.
In the case of `CCCO[C@@H]1O[C@H](CN)[C@@H](O)C(F)(F)[C@H]1O` [compound 16, n-Propyl 6-amino-3,6-dideoxy-3,3-difluoro-β-D-ribo-hexopyranoside], the IC50 at 3 days in data set [6] and in data set [7] was over 50 µM in each case. The concentration for a half-maximal effect (EC50) at 3 days in data set [6] and in data set [7] was over 50 µM throughout. For the same compound, the figures for the Ki in data set [1], in data set [2] (setting [8]) and in data set [4] were 4.3 ± 0.24 µM, 4.13 ± 0.26 µM and 2.16 ± 0.93 µM, respectively.

The values are drawn from publication PMC7934981, “n-Propyl 6-amino-2,6-dideoxy-2,2-difluoro-β-D-glucopyranoside is a good inhibitor for the β-galactosidase from E. coli” (Medicinal Chemistry Research, 2021).
